Measurements reported in ChEMBL document CHEMBL3885881, “DrugMatrix”.

Species: Rattus norvegicus
Test: DrugMatrix - Regimen: Daily Repeat
Assay type: toxicity, organism-based, Sprague-Dawley
Parameters: regimen Daily Repeat, gender Male, age 6-8 weeks
Details: in vivo, po, route oral GAVAGE, vehicle 100 % WATER; for ABSOLUTE BASOPHIL / ABSOLUTE EOSINOPHIL / ABSOLUTE LYMPHOCYTE / ABSOLUTE MONOCYTE / ABSOLUTE SEGMENTED NEUTROPHIL / BASOPHIL / EOSINOPHIL / ERYTHROCYTE COUNT / HEMATOCRIT / HEMOGLOBIN / LEUKOCYTE COUNT / LYMPHOCYTE / MEAN CORPUSCULAR HEMOGLOBIN / MEAN CORPUSCULAR HEMOGLOBIN CONCENTRATION / MEAN CORPUSCULAR VOLUME / MONOCYTE / NEUTROPHIL / NUCLEATED RED BLOOD CELLS / PLATELET COUNT: tissue Blood; for ALANINE AMINOTRANSFERASE / ALBUMIN / ALKALINE PHOSPHATASE / ASPARTATE AMINOTRANSFERASE / BLOOD UREA NITROGEN / CARBON DIOXIDE / CHLORIDE / CHOLESTEROL / CREATINE PHOSPHOKINASE / CREATININE / GLUCOSE / LACTATE DEHYDROGENASE / LIPASE / PHOSPHORUS / POTASSIUM / SODIUM / TOTAL BILIRUBIN / TOTAL PROTEIN / URIC ACID: tissue Plasma
[1] = 30 mg/kg, 120 h, dose level Low, time 5 day
[2] = 3000 mg/kg, 72 h, dose level High, time 3 day
[3] = 3000 mg/kg, 120 h, dose level High, time 5 day

CC1COc2c(N3CCN(C)CC3)c(F)cc3c(=O)c(C(=O)O)cn1c23 (centres undefined) [OFLOXACIN]
ABSOLUTE BASOPHIL [1]: 0 CELLS/uL | ABSOLUTE EOSINOPHIL [1]: 0 CELLS/uL | ABSOLUTE LYMPHOCYTE [1]: 11457 CELLS/uL | ABSOLUTE MONOCYTE [1]: 48.33 CELLS/uL | ABSOLUTE SEGMENTED NEUTROPHIL [1]: 1361.33 CELLS/uL | BASOPHIL [1]: 0% | EOSINOPHIL [1]: 0% | ERYTHROCYTE COUNT [1]: 5.63 x10E6/uL | HEMATOCRIT [1]: 35.6% | HEMOGLOBIN [1]: 14.27 G/DL | LEUKOCYTE COUNT [1]: 12.87 x10E3/uL | LYMPHOCYTE [1]: 89% | MEAN CORPUSCULAR HEMOGLOBIN [1]: 25.37 pg | MEAN CORPUSCULAR HEMOGLOBIN CONCENTRATION [1]: 40.07 G/DL | MEAN CORPUSCULAR VOLUME [1]: 63.23 fL | MONOCYTE [1]: 0.33% | NEUTROPHIL [1]: 10.67% | NUCLEATED RED BLOOD CELLS [1]: 0 /100WBC | PLATELET COUNT [1]: 1227 x10E3/uL | ALANINE AMINOTRANSFERASE [1]: 50 u/L | ALBUMIN [1]: 4.2 G/DL | ALKALINE PHOSPHATASE [1]: 350.67 u/L | ASPARTATE AMINOTRANSFERASE [1]: 79 u/L | BLOOD UREA NITROGEN [1]: 13.67 mg/dL | CARBON DIOXIDE [1]: 33.67 mmol/L | CHLORIDE [1]: 101.33 MEQ/L | CHOLESTEROL [1]: 68.33 mg/dL | CREATINE PHOSPHOKINASE [1]: 179.33 u/L | CREATININE [1]: 0.19 mg/dL | GLUCOSE [1]: 155.67 mg/dL | LACTATE DEHYDROGENASE [1]: 144 u/L | LIPASE [1]: 12.33 u/L | PHOSPHORUS [1]: 11.93 mg/dL | POTASSIUM [1]: 6.45 MEQ/L | SODIUM [1]: 144.3 MEQ/L | TOTAL BILIRUBIN [1]: 0.13 mg/dL | TOTAL PROTEIN [1]: 5.9 G/DL | URIC ACID [1]: 1.4 mg/dL | ABSOLUTE BASOPHIL [2]: 0 CELLS/uL | ABSOLUTE EOSINOPHIL [2]: 96.33 CELLS/uL | ABSOLUTE LYMPHOCYTE [2]: 13060.67 CELLS/uL | ABSOLUTE MONOCYTE [2]: 229.33 CELLS/uL | ABSOLUTE SEGMENTED NEUTROPHIL [2]: 680.33 CELLS/uL | BASOPHIL [2]: 0% | EOSINOPHIL [2]: 0.67% | ERYTHROCYTE COUNT [2]: 5.79 x10E6/uL | HEMATOCRIT [2]: 36.3% | HEMOGLOBIN [2]: 14.37 G/DL | LEUKOCYTE COUNT [2]: 14.07 x10E3/uL | LYMPHOCYTE [2]: 92.67% | MEAN CORPUSCULAR HEMOGLOBIN [2]: 24.83 pg | MEAN CORPUSCULAR HEMOGLOBIN CONCENTRATION [2]: 39.57 G/DL | MEAN CORPUSCULAR VOLUME [2]: 62.7 fL | MONOCYTE [2]: 1.67% | NEUTROPHIL [2]: 5% | NUCLEATED RED BLOOD CELLS [2]: 0 /100WBC | PLATELET COUNT [2]: 1277.33 x10E3/uL | ALANINE AMINOTRANSFERASE [2]: 62.33 u/L | ALBUMIN [2]: 3.93 G/DL | ALKALINE PHOSPHATASE [2]: 286.33 u/L | ASPARTATE AMINOTRANSFERASE [2]: 99.33 u/L | BLOOD UREA NITROGEN [2]: 13.33 mg/dL | CARBON DIOXIDE [2]: 22.33 mmol/L | CHLORIDE [2]: 105.33 MEQ/L | CHOLESTEROL [2]: 67 mg/dL | CREATINE PHOSPHOKINASE [2]: 1225.67 u/L | CREATININE [2]: 0.2 mg/dL | GLUCOSE [2]: 162.33 mg/dL | LACTATE DEHYDROGENASE [2]: 245 u/L | LIPASE [2]: 9.67 u/L | PHOSPHORUS [2]: 11.1 mg/dL | POTASSIUM [2]: 5.42 MEQ/L | SODIUM [2]: 145.2 MEQ/L | TOTAL BILIRUBIN [2]: 0.17 mg/dL | TOTAL PROTEIN [2]: 5.57 G/DL | URIC ACID [2]: 1.57 mg/dL | ABSOLUTE BASOPHIL [3]: 0 CELLS/uL | ABSOLUTE EOSINOPHIL [3]: 0 CELLS/uL | ABSOLUTE LYMPHOCYTE [3]: 16402.33 CELLS/uL | ABSOLUTE MONOCYTE [3]: 44.67 CELLS/uL | ABSOLUTE SEGMENTED NEUTROPHIL [3]: 986.33 CELLS/uL | BASOPHIL [3]: 0% | EOSINOPHIL [3]: 0% | ERYTHROCYTE COUNT [3]: 5.74 x10E6/uL | HEMATOCRIT [3]: 35.4% | HEMOGLOBIN [3]: 14.07 G/DL | LEUKOCYTE COUNT [3]: 17.43 x10E3/uL | LYMPHOCYTE [3]: 93.67% | MEAN CORPUSCULAR HEMOGLOBIN [3]: 24.53 pg | MEAN CORPUSCULAR HEMOGLOBIN CONCENTRATION [3]: 39.73 G/DL | MEAN CORPUSCULAR VOLUME [3]: 61.73 fL | MONOCYTE [3]: 0.33% | NEUTROPHIL [3]: 6% | NUCLEATED RED BLOOD CELLS [3]: 0 /100WBC | PLATELET COUNT [3]: 1340 x10E3/uL | ALANINE AMINOTRANSFERASE [3]: 60.33 u/L | ALBUMIN [3]: 4.17 G/DL | ALKALINE PHOSPHATASE [3]: 195 u/L | ASPARTATE AMINOTRANSFERASE [3]: 83 u/L | BLOOD UREA NITROGEN [3]: 14.33 mg/dL | CARBON DIOXIDE [3]: 27 mmol/L | CHLORIDE [3]: 104.33 MEQ/L | CHOLESTEROL [3]: 67.33 mg/dL | CREATINE PHOSPHOKINASE [3]: 394.67 u/L | CREATININE [3]: 0.22 mg/dL | GLUCOSE [3]: 147.67 mg/dL | LACTATE DEHYDROGENASE [3]: 555.67 u/L | LIPASE [3]: 10 u/L | PHOSPHORUS [3]: 11.37 mg/dL | POTASSIUM [3]: 5.87 MEQ/L | SODIUM [3]: 144.67 MEQ/L | TOTAL BILIRUBIN [3]: 0.13 mg/dL | TOTAL PROTEIN [3]: 5.97 G/DL | URIC ACID [3]: 1.67 mg/dL
